From PMC3664202 (Bioorganic & medicinal chemistry letters, 2012)

Assays:
[1] = test system: psoriasis and other inflammatory skin conditions; settings: small clinical trial; cited from earlier work
[2] = biological target: Kv1.3 channels (Mus musculus, UniProt P16390); experiment: Kv1.3 blockade, manual whole-cell patch-clamp; assay type: cell-based; settings: for decrease in Kv1.3 blocking activity/potency relative to diphenoxylate: fold less potent than diphenoxylate
[3] = test system: delayed type hypersensitivity (DTH) and allergic contact dermatitis (ACD); settings: Lewis rats; dosed orally, by i.p. injection or topically; cited from earlier work
[4] = cited from earlier work
[5] = test system: adoptive transfer and chronic relapsing experimental autoimmune encephalomyelitis (EAE); settings: rats; cited from earlier work

Kv1.3 channels, sequence (P16390 whole entry): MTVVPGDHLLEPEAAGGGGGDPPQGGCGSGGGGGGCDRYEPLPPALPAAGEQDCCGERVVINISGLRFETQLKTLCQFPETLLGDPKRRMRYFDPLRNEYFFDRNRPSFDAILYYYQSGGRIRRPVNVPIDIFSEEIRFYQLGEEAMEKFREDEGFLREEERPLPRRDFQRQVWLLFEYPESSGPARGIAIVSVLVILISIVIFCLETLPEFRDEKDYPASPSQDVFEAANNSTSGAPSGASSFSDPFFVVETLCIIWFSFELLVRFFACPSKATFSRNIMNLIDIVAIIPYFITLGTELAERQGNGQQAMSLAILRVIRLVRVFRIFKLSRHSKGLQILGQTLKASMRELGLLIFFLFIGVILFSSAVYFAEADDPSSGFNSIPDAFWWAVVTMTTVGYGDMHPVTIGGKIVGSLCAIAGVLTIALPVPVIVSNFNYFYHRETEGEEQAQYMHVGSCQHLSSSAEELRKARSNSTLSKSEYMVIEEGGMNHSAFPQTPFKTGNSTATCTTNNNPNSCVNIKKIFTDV

CCOC(=O)C1(c2ccccc2)CCN(CCC(C#N)(c2ccccc2)c2ccccc2)CC1 [Compound 1, Diphenoxylate]
clinical effect on psoriasis and other inflammatory skin conditions [1]: successfully treat psoriasis and other inflammatory skin conditions

CCOC(=O)C1CCN(CCC(C#N)(c2ccccc2)c2ccccc2)CC1 [Compound 6, Ethyl 1-(3-cyano-3,3-diphenylpropyl)piperidine-4-carboxylate]
decrease in Kv1.3 blocking activity/potency relative to diphenoxylate [2]: ~ 50 fold

CCOC(=O)C1(c2ccccc2)CCN(CCC(c2ccccc2)c2ccccc2)CC1 [Compound 7, Ethyl 1-(3,3-diphenylpropyl)-4-phenylpiperidine-4-carboxylate]
more active than diphenoxylate (Kv1.3 blockade) ([2]; fold more active than diphenoxylate): 6 fold

N#CC(CCN1CCCCC1)(c1ccccc1)c1ccccc1 [Compound 8, 2,2-diphenyl-4-(piperidin-1-yl)butanenitrile]
decrease in Kv1.3 blocking activity/potency relative to diphenoxylate [2]: 4 fold

N#CC(CCN1CCCC(O)C1)(c1ccccc1)c1ccccc1 (stereo not shown) [Compound 15, 4-(3-hydroxypiperidin-1-yl)-2,2-diphenylbutanenitrile]
IC50 [2]: > 100 µM

OC1CCN(CCCc2ccccc2)CC1 [Compound 17, 1-(3-phenylpropyl)piperidin-4-ol]
IC50 [2]: > 100 µM
Kv1.3 blocking activity (in words) ([2]; removal of a cyano group plus a phenyl ring from 14): no activity

O=c1ccc2c(OCCCCOc3ccccc3)c3ccoc3cc2o1 [PAP-1]
effect on DTH and ACD [3]: suppress delayed type hypersensitivity (DTH) and allergic contact dermatitis (ACD)
oral availability [4]: 25%

ShK
effect on EAE [5]: able to treat both adoptive transfer and chronic relapsing experimental autoimmune encephalomyelitis (EAE)
